Tests used:
Assay type in all cases: biochemical
CD45 = target: T1, CD45 (Homo sapiens, UniProt P08575); assay: Tyrosine phosphatase selectivity (pNPP substrate), CD45; details: for IC50: CD45, pNPP substrate; for IC50PTP/IC50SHP2 CD45: selectivity ratio CD45 over SHP2
T1 construct: made in house; host or cells: E. coli
T1 sequence (P08575 26-1306): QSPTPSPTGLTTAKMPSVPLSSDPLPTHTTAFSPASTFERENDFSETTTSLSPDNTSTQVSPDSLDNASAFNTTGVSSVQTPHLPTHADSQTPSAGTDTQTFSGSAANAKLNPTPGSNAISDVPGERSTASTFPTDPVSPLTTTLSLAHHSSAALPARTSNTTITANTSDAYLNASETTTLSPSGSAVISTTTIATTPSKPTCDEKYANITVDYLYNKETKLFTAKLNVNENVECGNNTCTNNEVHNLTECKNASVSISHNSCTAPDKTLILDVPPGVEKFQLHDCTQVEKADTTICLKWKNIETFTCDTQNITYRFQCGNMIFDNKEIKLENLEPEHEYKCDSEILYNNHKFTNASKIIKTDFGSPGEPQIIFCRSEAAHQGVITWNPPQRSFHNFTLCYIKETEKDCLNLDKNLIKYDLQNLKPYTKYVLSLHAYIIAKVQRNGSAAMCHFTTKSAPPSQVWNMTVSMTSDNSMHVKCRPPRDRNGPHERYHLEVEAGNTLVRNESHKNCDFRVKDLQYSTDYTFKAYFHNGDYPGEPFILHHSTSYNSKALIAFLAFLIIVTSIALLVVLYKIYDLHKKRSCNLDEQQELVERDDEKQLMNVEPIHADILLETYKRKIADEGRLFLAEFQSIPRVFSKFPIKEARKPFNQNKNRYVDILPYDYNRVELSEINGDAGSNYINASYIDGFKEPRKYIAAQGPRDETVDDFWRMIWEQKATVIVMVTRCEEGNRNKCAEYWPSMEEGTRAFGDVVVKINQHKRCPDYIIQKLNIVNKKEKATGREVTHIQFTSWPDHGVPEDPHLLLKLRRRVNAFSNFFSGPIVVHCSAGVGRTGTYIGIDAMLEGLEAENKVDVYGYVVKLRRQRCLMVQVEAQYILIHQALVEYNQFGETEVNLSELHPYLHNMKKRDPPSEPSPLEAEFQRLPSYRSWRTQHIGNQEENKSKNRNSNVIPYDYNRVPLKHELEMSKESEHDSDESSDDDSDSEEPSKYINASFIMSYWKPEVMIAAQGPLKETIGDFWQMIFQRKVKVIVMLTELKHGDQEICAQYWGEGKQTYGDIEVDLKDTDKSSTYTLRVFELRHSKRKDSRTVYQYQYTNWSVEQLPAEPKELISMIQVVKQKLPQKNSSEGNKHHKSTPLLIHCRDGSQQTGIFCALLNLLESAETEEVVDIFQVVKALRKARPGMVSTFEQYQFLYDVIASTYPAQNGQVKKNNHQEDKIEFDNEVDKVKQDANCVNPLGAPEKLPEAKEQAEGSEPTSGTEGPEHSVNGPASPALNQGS
Description: (§1) This experiment evaluated the selectivity of the disclosed compounds against tyrosine phosphatases, including SHP1, HePTP, Laforin, LMWPTP, LYP, PTP1B, PRL2, SSU72, VHR, FAP1, STEP, CDC14A, CD45, MEG2, and PP5, all expressed and purified from E. coli.
(§2) Phosphatase activity was measured using p-nitrophenyl phosphate (pNPP) (Fisher Scientific) as the substrate in 50 mM 3,3-dimethylglutaric acid buffer (pH 7.0, containing 1 mM EDTA), with ionic strength adjusted to 0.15 M with NaCl. […] After 10-60 minutes, the reaction was quenched by adding 20 µL of 5 N NaOH. Wells without enzyme were used as controls for correction. The amount of the product, p-nitrophenol, was determined by measuring the absorbance at 405 nm using a Spectra MAX340 microplate spectrophotometer (Molecular Devices), with a molar extinction coefficient of 18000 M^-1cm^-1.
(§3) Data were analyzed using GraphPad Prism software. Dose-response curves were obtained by fitting data using the nonlinear S-curve regression Dose-response-inhibition equation, and IC50 values were calculated.

MEG2 = target: T2, MEG2 (Homo sapiens, UniProt P43378); assay: Tyrosine phosphatase selectivity (pNPP substrate), MEG2; details: for IC50: MEG2, pNPP substrate; for IC50PTP/IC50SHP2 MEG2: selectivity ratio MEG2 over SHP2
T2 construct: made in house; host or cells: E. coli
T2 sequence (P43378 1-593): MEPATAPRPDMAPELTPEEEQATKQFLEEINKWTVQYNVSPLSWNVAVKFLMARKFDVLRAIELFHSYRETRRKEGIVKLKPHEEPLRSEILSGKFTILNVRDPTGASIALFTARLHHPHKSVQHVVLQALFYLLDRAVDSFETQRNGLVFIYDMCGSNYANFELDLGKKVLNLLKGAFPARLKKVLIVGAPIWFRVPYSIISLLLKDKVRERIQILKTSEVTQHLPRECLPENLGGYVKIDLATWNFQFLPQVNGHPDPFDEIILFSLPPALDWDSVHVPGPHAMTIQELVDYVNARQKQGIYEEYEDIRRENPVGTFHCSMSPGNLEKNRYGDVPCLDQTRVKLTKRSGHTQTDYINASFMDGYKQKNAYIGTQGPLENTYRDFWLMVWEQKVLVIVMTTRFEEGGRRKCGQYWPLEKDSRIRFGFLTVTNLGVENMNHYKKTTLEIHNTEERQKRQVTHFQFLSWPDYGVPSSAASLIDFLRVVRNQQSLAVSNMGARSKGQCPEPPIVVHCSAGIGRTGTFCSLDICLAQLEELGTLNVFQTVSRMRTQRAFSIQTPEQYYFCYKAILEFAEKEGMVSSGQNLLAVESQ
Description: as §1, §2, §3

PP5 = target: T3, PP5 (Homo sapiens, UniProt P53041); assay: Tyrosine phosphatase selectivity (pNPP substrate), PP5; details: for IC50: PP5, pNPP substrate; for IC50PTP/IC50SHP2 PP5: selectivity ratio PP5 over SHP2
T3 construct: made in house; host or cells: E. coli
T3 sequence (P53041 1-499): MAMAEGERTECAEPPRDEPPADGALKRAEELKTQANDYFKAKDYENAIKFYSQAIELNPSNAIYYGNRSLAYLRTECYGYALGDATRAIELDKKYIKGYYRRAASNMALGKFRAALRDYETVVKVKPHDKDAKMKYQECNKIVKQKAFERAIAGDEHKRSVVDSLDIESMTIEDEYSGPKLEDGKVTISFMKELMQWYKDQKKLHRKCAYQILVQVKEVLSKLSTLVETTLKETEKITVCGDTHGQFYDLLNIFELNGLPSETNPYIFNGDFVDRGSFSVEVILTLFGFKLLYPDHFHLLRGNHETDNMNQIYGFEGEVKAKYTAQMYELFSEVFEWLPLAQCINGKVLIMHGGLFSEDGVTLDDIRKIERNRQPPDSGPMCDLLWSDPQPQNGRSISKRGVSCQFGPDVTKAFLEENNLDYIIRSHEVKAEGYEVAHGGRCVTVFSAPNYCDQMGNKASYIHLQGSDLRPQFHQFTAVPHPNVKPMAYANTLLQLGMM
Description: as §1, §2, §3

Compound: O=C(Nc1ccc(-c2ccsc2)cc1)C(=O)Nc1ccc(-c2cc3cnc(-c4nnn[nH]4)nc3n2C2CCC2)cc1 [Example 131]
- IC50 (CD45): 25.2 µM
- IC50PTP/IC50SHP2 CD45 (CD45): 969.2
- IC50 (MEG2): 9.9 µM
- IC50PTP/IC50SHP2 MEG2 (MEG2): 380.8
- IC50 (PP5): > 50 µM
- IC50PTP/IC50SHP2 PP5 (PP5): 1923.1

Compound: O=C(Nc1ccc(-c2ccsc2)cc1)C(=O)Nc1ccc(-c2cc3cc(F)c(-c4nnn[nH]4)nc3n2C2CCC2)cc1 [Example 132]
- IC50 (CD45): 23.7 µM
- IC50PTP/IC50SHP2 CD45 (CD45): 877.8
- IC50 (MEG2): 15.1 µM
- IC50PTP/IC50SHP2 MEG2 (MEG2): 559.3
- IC50 (PP5): > 50 µM
- IC50PTP/IC50SHP2 PP5 (PP5): 1851.9

Compound: Cn1cc(-c2ccc(NC(=O)C(=O)Nc3ccc(-c4cc5cc(F)c(-c6noc(=O)[nH]6)cc5n4C4CCC4)cc3)cc2)cn1 [Example 123]
- IC50 (CD45): 4.27 µM
- IC50PTP/IC50SHP2 CD45 (CD45): 30.3
- IC50 (MEG2): 2.41 µM
- IC50PTP/IC50SHP2 MEG2 (MEG2): 17.1
- IC50 (PP5): > 100 µM
- IC50PTP/IC50SHP2 PP5 (PP5): 709.2

Compound: O=C(Nc1ccc(-c2ccsc2)cc1)C(=O)Nc1ccc(-c2oc3cc(F)c(-c4nnn[nH]4)cc3c2C2CCC2)cc1 [Example 130]
- IC50 (CD45): > 50 µM
- IC50PTP/IC50SHP2 CD45 (CD45): 2000
- IC50 (MEG2): < 3 µM
- IC50PTP/IC50SHP2 MEG2 (MEG2): 120
- IC50 (PP5): > 50 µM
- IC50PTP/IC50SHP2 PP5 (PP5): 2000

Compound: CC1(n2c(-c3ccc(NC(=O)C(=O)Nc4ccc(N5CCC6(CCOC6)CC5)cc4)cc3)cc3cc(F)c(-c4nnn[nH]4)cc32)CCC1 [Example 68]
- IC50 (CD45): 3.48 µM
- IC50PTP/IC50SHP2 CD45 (CD45): 72.5
- IC50 (MEG2): 0.89 µM
- IC50PTP/IC50SHP2 MEG2 (MEG2): 18.5
- IC50 (PP5): > 25 µM
- IC50PTP/IC50SHP2 PP5 (PP5): 520.8

Compound: O=C(Nc1ccc(-c2ccsc2)cc1)C(=O)Nc1ccc(-c2cc3ccc(-c4nnn[nH]4)nc3n2C2CCC2)cc1 [Example 129]
- IC50 (CD45): 41.5 µM
- IC50PTP/IC50SHP2 CD45 (CD45): 703.4
- IC50 (MEG2): 7.2 µM
- IC50PTP/IC50SHP2 MEG2 (MEG2): 122.0
- IC50 (PP5): > 50 µM
- IC50PTP/IC50SHP2 PP5 (PP5): 847.5

Compound: O=C(Nc1ccc(-c2oc3cc(F)c(-c4nnn[nH]4)cc3c2C2CCC2)cc1)C(=O)Nc1ccc(N2CCC3(CCOC3)CC2)cc1 [Example 125]
- IC50 (CD45): 16.1 µM
- IC50PTP/IC50SHP2 CD45 (CD45): 315.7
- IC50 (MEG2): 8.54 µM
- IC50PTP/IC50SHP2 MEG2 (MEG2): 167.5
- IC50 (PP5): > 100 µM
- IC50PTP/IC50SHP2 PP5 (PP5): 1960.8

Compound: O=C(Nc1ccc(-c2ccsc2)cc1)C(=O)Nc1ccc(-c2cc3cc(F)c(-c4nnn[nH]4)cc3n2C2CCC2)cc1 [Example 4]
- IC50 (CD45): > 50 µM
- IC50PTP/IC50SHP2 CD45 (CD45): 1724.1
- IC50 (MEG2): 22.1 µM
- IC50PTP/IC50SHP2 MEG2 (MEG2): 762.1
- IC50 (PP5): > 50 µM
- IC50PTP/IC50SHP2 PP5 (PP5): 1724.1

Compound: O=C(Nc1ccc(-c2cc3cc(F)c(-c4nnn[nH]4)cc3n2C2CCC2)cc1)C(=O)Nc1ccc(N2CC3COCC3C2)cc1 (stereo not drawn) [Example 114]
- IC50 (CD45): 1.81 µM
- IC50PTP/IC50SHP2 CD45 (CD45): 25.1
- IC50 (MEG2): 1.66 µM
- IC50PTP/IC50SHP2 MEG2 (MEG2): 23.0
- IC50 (PP5): > 100 µM
- IC50PTP/IC50SHP2 PP5 (PP5): 1388

Compound: O=C(Nc1ccc(-c2cc3cc(F)c(-c4nnn[nH]4)cc3n2C2CCC2)cc1)C(=O)Nc1ccc(N2CCOCC2)cc1 [Example 47]
- IC50 (CD45): 1.06 µM
- IC50PTP/IC50SHP2 CD45 (CD45): 16.8
- IC50 (MEG2): 0.99 µM
- IC50PTP/IC50SHP2 MEG2 (MEG2): 15.7
- IC50 (PP5): > 100 µM
- IC50PTP/IC50SHP2 PP5 (PP5): 1587

Compound: O=C(Nc1ccc(-c2cc3cc(F)c(-c4nnn[nH]4)cc3n2C2CCC2)cc1)C(=O)Nc1ccc(N2CCC3(CCOC3)CC2)cc1 [Example 67]
- IC50 (CD45): 2.62 µM
- IC50PTP/IC50SHP2 CD45 (CD45): 77.0
- IC50 (MEG2): 1.77 µM
- IC50PTP/IC50SHP2 MEG2 (MEG2): 52.0
- IC50 (PP5): > 100 µM
- IC50PTP/IC50SHP2 PP5 (PP5): 2941

Compound: Cn1cc(-c2ccc(NC(=O)C(=O)Nc3ccc(-c4cc5cc(F)c(-c6nnc(C(F)(F)F)[nH]6)cc5n4C4CCC4)cc3)cc2)cn1 [Example 124]
- IC50 (CD45): > 100 µM
- IC50PTP/IC50SHP2 CD45 (CD45): 139.7
- IC50 (MEG2): > 100 µM
- IC50PTP/IC50SHP2 MEG2 (MEG2): 139.7
- IC50 (PP5): > 100 µM
- IC50PTP/IC50SHP2 PP5 (PP5): 139.7

From patent EP4741383A1, “COMPOUND AND USE THEREOF AS ANTI-CANCER DRUG” (Tyligand Bioscience (Shanghai) Limited, priority 2023, dated 2025)
